The values that follow are results of earlier work, collected in patent publication US9873698B2, “Spirocycles as inhibitors of 11-beta hydroxyl steroid dehydrogenase type 1” (Incyte Corporation, priority 2007, dated 2018).

The target in this series is T1, 11βHSD1 (Homo sapiens, UniProt P28845).
T1 construct: host or cells: healthy volunteers, eye (in vivo)
Conditions: healthy volunteers, after seven days of carbenoxolone treatment.

T1 sequence (P28845 whole entry): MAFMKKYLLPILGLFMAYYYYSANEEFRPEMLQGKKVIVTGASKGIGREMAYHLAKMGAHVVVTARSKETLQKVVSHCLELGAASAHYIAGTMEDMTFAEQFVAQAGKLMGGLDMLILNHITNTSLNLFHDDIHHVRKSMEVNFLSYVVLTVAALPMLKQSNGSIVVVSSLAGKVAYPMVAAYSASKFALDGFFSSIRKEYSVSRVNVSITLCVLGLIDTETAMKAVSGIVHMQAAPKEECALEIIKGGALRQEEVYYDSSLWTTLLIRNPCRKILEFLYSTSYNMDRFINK

In the case of `CC1(C)[C@@H](OC(=O)CCC(=O)O)CC[C@]2(C)[C@H]3C(=O)C=C4[C@@H]5C[C@@](C)(C(=O)O)CC[C@]5(C)CC[C@@]4(C)[C@]3(C)CC[C@@H]12` [carbenoxolone], the “IOP reduced by” value was 18%.
